Measured values reported in PubChem BioAssay AID1745844 (Carcinogenic Potency Database (CPDB), 2022).
Active and inactive are the calls of the source. The rule behind the calls is not given here.

System: rodent lifetime carcinogenesis bioassay, tumor incidence TD50
Test: carcinogenic potency in animals, long-term in vivo studies, CPDB compilation (AID 1745844)

For ClC1C2(Cl)C3C4C5OC5C5C4C1(Cl)C(Cl)(C53)C2(Cl)Cl (centres undefined), the TD50 (mouse, strain B6C3F1, females, in feed, site: any site (literature study), lesion: several types, types named in the paper, dosed 80 weeks, study length 92 weeks) was 0.743 mg/kg/day (inactive), the TD50 (mouse, strain B6C3F1, females, in feed, site: liver, lesion: hepatocellular adenoma + hepatocellular carcinoma + neoplastic nodule, dosed 80 weeks, study length 92 weeks) was 2.53 mg/kg/day and the TD50 (mouse, strain B6C3F1, females, in feed, site: lung, lesion: alveolar/bronchiolar adenoma + alveolar/bronchiolar carcinoma, dosed 80 weeks, study length 92 weeks) was 6.78 mg/kg/day. The TD50 (mouse, strain B6C3F1, males, in feed, site: any site (literature study), lesion: several types, types named in the paper, dosed 80 weeks, study length 93 weeks) was 0.494 mg/kg/day (inactive), the TD50 (mouse, strain B6C3F1, males, in feed, site: liver, lesion: hepatocellular adenoma + hepatocellular carcinoma + neoplastic nodule, dosed 80 weeks, study length 93 weeks) was 1.96 mg/kg/day and the TD50 (mouse, strain B6C3F1, males, in feed, site: lung, lesion: alveolar/bronchiolar adenoma + alveolar/bronchiolar carcinoma, dosed 80 weeks, study length 93 weeks) was 0.465 mg/kg/day. The TD50 (rat, strain Osborne-Mendel, females, in feed, site: any site (literature study), lesion: several types, types named in the paper, dosed 69 weeks, study length 111 weeks) was 0.327 mg/kg/day, the TD50 (rat, strain Osborne-Mendel, females, in feed, site: mammary gland, lesion: adenoma + fibroadenoma, dosed 69 weeks, study length 111 weeks) was 0.612 mg/kg/day (inactive) and the TD50 (rat, strain Osborne-Mendel, males, in feed, site: all sites, lesion: hemangioma, dosed 80 weeks, study length 109 weeks) was 2.89 mg/kg/day (inactive). For the same compound, the carcinogen call (rat, strain Osborne-Mendel, males, in feed, site: any site (literature study), lesion: several types, types named in the paper, dosed 80 weeks, study length 111 weeks) was “negative (inactive)” and the TD50 (rat, strain Osborne-Mendel, males, in feed, site: liver, lesion: hepatocellular adenoma + hepatocellular carcinoma + neoplastic nodule, dosed 80 weeks, study length 111 weeks) was 7.72 mg/kg/day.
In the case of [Cl][Hg][Cl], the TD50 (mouse, strain B6C3F1, females, by gavage, site: any site (literature study), lesion: several types, types named in the paper, dosed 103 weeks, study length 104 weeks) is reported as 5.83 mg/kg/day (inactive), the TD50 (mouse, strain B6C3F1, females, by gavage, site: lung, lesion: alveolar/bronchiolar adenoma + alveolar/bronchiolar carcinoma, dosed 103 weeks, study length 104 weeks) is reported as 40.8 mg/kg/day and the TD50 (mouse, strain B6C3F1, males, by gavage, site: kidney, lesion: tubular-cell adenocarcinoma, dosed 103 weeks, study length 104 weeks) is reported as 240 mg/kg/day. The TD50 (mouse, strain B6C3F1, males, by gavage, site: kidney, lesion: tubule adenoma + tubular-cell adenocarcinoma, dosed 103 weeks, study length 104 weeks) was 81.6 mg/kg/day, the TD50 (mouse, strain B6C3F1, males, by gavage, site: kidney, lesion: tubule adenoma, dosed 103 weeks, study length 104 weeks) was 125 mg/kg/day and the TD50 (mouse, strain Charles River CD1, females, in drinking water, site: all sites, lesion: lymphoma and leukemia, combined, dosed 118 weeks, study length 118 weeks) was 3.58 mg/kg/day (inactive). The TD50 (mouse, strain Charles River CD1, females, in drinking water, site: any site (literature study), lesion: malignant tumor, dosed 118 weeks, study length 118 weeks) was 5.55 mg/kg/day (inactive), the TD50 (mouse, strain Charles River CD1, females, in drinking water, site: any site (literature study), lesion: several types, types named in the paper, dosed 118 weeks, study length 118 weeks) was 2.42 mg/kg/day (inactive) and the carcinogen call (mouse, strain Charles River CD1, females, in drinking water, site: lung, lesion: one or several types, types not named, dosed 118 weeks, study length 118 weeks) was “negative (inactive)”. For the same compound, the carcinogen call (mouse, strain Charles River CD1, males, in drinking water, site: any site (literature study), lesion: malignant tumor, dosed 119 weeks, study length 119 weeks) was “negative (inactive)”, the TD50 (mouse, strain Charles River CD1, males, in drinking water, site: any site (literature study), lesion: several types, types named in the paper, dosed 119 weeks, study length 119 weeks) was 3.2 mg/kg/day (inactive) and the TD50 (mouse, strain Charles River CD1, males, in drinking water, site: lung, lesion: one or several types, types not named, dosed 119 weeks, study length 119 weeks) was 11.2 mg/kg/day (inactive). The TD50 (rat, strain Fischer 344, females, by gavage, site: forestomach, lesion: squamous-cell papilloma, dosed 103 weeks, study length 104 weeks) was 51.8 mg/kg/day, the TD50 (rat, strain Fischer 344, females, by gavage, site: liver, lesion: hepatocellular adenoma + hepatocellular carcinoma + neoplastic nodule, dosed 103 weeks, study length 104 weeks) was 105 mg/kg/day and the TD50 (rat, strain Fischer 344, males, by gavage, site: adrenal medulla, lesion: pheochromocytoma benign, bilateral + pheochromocytoma, benign, dosed 103 weeks, study length 104 weeks) was 1.56 mg/kg/day. The TD50 (rat, strain Fischer 344, males, by gavage, site: adrenal medulla, lesion: pheochromocytoma benign, bilateral + pheochromocytoma, complex + pheochromocytoma, malignant + pheochromocytoma malignant, bil, dosed 103 weeks, study length 104 weeks) was 1.6 mg/kg/day, the TD50 (rat, strain Fischer 344, males, by gavage, site: any site (literature study), lesion: several types, types named in the paper, dosed 103 weeks, study length 104 weeks) was 1.04 mg/kg/day and the TD50 (rat, strain Fischer 344, males, by gavage, site: forestomach, lesion: squamous-cell papilloma, dosed 103 weeks, study length 104 weeks) was 3.12 mg/kg/day. The TD50 (rat, strain Fischer 344, males, by gavage, site: liver, lesion: hepatocellular adenoma + hepatocellular carcinoma + neoplastic nodule, dosed 103 weeks, study length 104 weeks) was 10.3 mg/kg/day, the TD50 (rat, strain Fischer 344, males, by gavage, site: testis, lesion: interstitial-cell adenoma, bilateral + interstitial-cell adenoma, dosed 103 weeks, study length 104 weeks) was 0.825 mg/kg/day and the TD50 (rat, strain Fischer 344, males, by gavage, site: thyroid gland, lesion: follicular-cell adenoma + follicular-cell carcinoma, dosed 103 weeks, study length 104 weeks) was 5.25 mg/kg/day. For the same compound, the TD50 (rat, strain Fischer 344, males, by gavage, site: thyroid gland, lesion: follicular-cell adenoma, dosed 103 weeks, study length 104 weeks) was 5.98 mg/kg/day and the TD50 (rat, strain Fischer 344, males, by gavage, site: thyroid gland, lesion: follicular-cell carcinoma, dosed 103 weeks, study length 104 weeks) was 7.32 mg/kg/day.
With OC(Cn1cncn1)(Cn1cncn1)c1ccc(F)cc1F the carcinogen call (mouse, strain Charles River CD1, females, in feed, site: any site (literature study), lesion: several types, types named in the paper, dosed 104 weeks, study length 104 weeks) was “negative (inactive)”, the TD50 (mouse, strain Charles River CD1, females, in feed, site: liver, lesion: hepatocellular adenoma, dosed 104 weeks, study length 104 weeks) was 129 mg/kg/day (inactive) and the carcinogen call (mouse, strain Charles River CD1, females, in feed, site: liver, lesion: hepatocellular carcinoma, dosed 104 weeks, study length 104 weeks) was “negative (inactive)”. The TD50 (mouse, strain Charles River CD1, males, in feed, site: any site (literature study), lesion: several types, types named in the paper, dosed 104 weeks, study length 104 weeks) was 239 mg/kg/day (inactive), the TD50 (mouse, strain Charles River CD1, males, in feed, site: liver, lesion: hepatocellular adenoma, dosed 104 weeks, study length 104 weeks) was 144 mg/kg/day (inactive) and the carcinogen call (mouse, strain Charles River CD1, males, in feed, site: liver, lesion: hepatocellular carcinoma, dosed 104 weeks, study length 104 weeks) was “negative (inactive)”. For the same compound, the carcinogen call (rat, strain Charles River CD (Sprague-Dawley), females, in feed, site: any site (literature study), lesion: several types, types named in the paper, dosed 104 weeks, study length 104 weeks) was “negative (inactive)”, the TD50 (rat, strain Charles River CD (Sprague-Dawley), females, in feed, site: liver, lesion: hepatocellular adenoma, dosed 104 weeks, study length 104 weeks) was 298 mg/kg/day (inactive) and the carcinogen call (rat, strain Charles River CD (Sprague-Dawley), females, in feed, site: liver, lesion: hepatocellular carcinoma, dosed 104 weeks, study length 104 weeks) was “negative (inactive)”. The TD50 (rat, strain Charles River CD (Sprague-Dawley), females, in feed, site: mammary gland, lesion: adenoma, dosed 104 weeks, study length 104 weeks) was 412 mg/kg/day (inactive), the carcinogen call (rat, strain Charles River CD (Sprague-Dawley), females, in feed, site: mammary gland, lesion: carcinoma, dosed 104 weeks, study length 104 weeks) was “negative (inactive)” and the carcinogen call (rat, strain Charles River CD (Sprague-Dawley), females, in feed, site: mammary gland, lesion: fibroadenoma, dosed 104 weeks, study length 104 weeks) was “negative (inactive)”. For the same compound, the carcinogen call (rat, strain Charles River CD (Sprague-Dawley), females, in feed, site: mammary gland, lesion: several types, types named in the paper, dosed 104 weeks, study length 104 weeks) was “negative (inactive)”, the carcinogen call (rat, strain Charles River CD (Sprague-Dawley), males, in feed, site: adrenal medulla, lesion: pheochromocytoma, dosed 104 weeks, study length 104 weeks) was “negative (inactive)” and the carcinogen call (rat, strain Charles River CD (Sprague-Dawley), males, in feed, site: any site (literature study), lesion: several types, types named in the paper, dosed 104 weeks, study length 104 weeks) was “negative (inactive)”. For the same compound, the TD50 (rat, strain Charles River CD (Sprague-Dawley), males, in feed, site: liver, lesion: hepatocellular adenoma, dosed 104 weeks, study length 104 weeks) was 80.7 mg/kg/day.
CC(C)CN(N=O)C(N)=O gave a TD50 (rat, strain Donryu, females, in drinking water, site: any site (literature study), lesion: several types, types named in the paper, dosed 76 weeks, study length 76 weeks) of 4.7 mg/kg/day, a TD50 (rat, strain Donryu, females, in drinking water, site: digestive tract, lesion: several types, types named in the paper, dosed 76 weeks, study length 76 weeks) of 4.73 mg/kg/day and a TD50 (rat, strain Donryu, females, in drinking water, site: duodenum, lesion: several types, types named in the paper, dosed 76 weeks, study length 76 weeks) of 7.22 mg/kg/day. It also gave a TD50 (rat, strain Donryu, females, in drinking water, site: liver, lesion: several types, types named in the paper, dosed 76 weeks, study length 76 weeks) of 1220 mg/kg/day and a TD50 (rat, strain Donryu, females, in drinking water, site: stomach, glandular, lesion: several types, types named in the paper, dosed 76 weeks, study length 76 weeks) of 23.1 mg/kg/day.
Work on O=NN(CCCC(F)(F)F)CCCC(F)(F)F yielded a TD50 (rat, strain Sprague-Dawley, females, by gavage, site: any site (literature study), lesion: malignant tumor, dosed 32 weeks, study length 101 weeks) of 0.291 mg/kg/day, a TD50 (rat, strain Sprague-Dawley, females, by gavage, site: liver, lesion: hepatocellular carcinoma, dosed 32 weeks, study length 101 weeks) of 0.707 mg/kg/day and a TD50 (rat, strain Sprague-Dawley, females, by gavage, site: lung, lesion: several types, types named in the paper, dosed 32 weeks, study length 101 weeks) of 1.12 mg/kg/day. It also gave a TD50 (rat, strain Sprague-Dawley, males, by gavage, site: any site (literature study), lesion: malignant tumor, dosed 32 weeks, study length 101 weeks) of 0.363 mg/kg/day, a TD50 (rat, strain Sprague-Dawley, males, by gavage, site: liver, lesion: hepatocellular carcinoma, dosed 32 weeks, study length 101 weeks) of 0.793 mg/kg/day and a TD50 (rat, strain Sprague-Dawley, males, by gavage, site: lung, lesion: several types, types named in the paper, dosed 32 weeks, study length 101 weeks) of 0.793 mg/kg/day.
With COc1ccc(O)cc1 the TD50 (rat, strain F344/DuCrj, females, in feed, site: forestomach, lesion: squamous-cell carcinoma, dosed 104 weeks, study length 104 weeks) was 3070 mg/kg/day, the TD50 (rat, strain F344/DuCrj, females, in feed, site: forestomach, lesion: squamous-cell papilloma, dosed 104 weeks, study length 104 weeks) was 2580 mg/kg/day and the carcinogen call (rat, strain F344/DuCrj, males, in feed, site: forestomach, lesion: one or several types, types not named, dosed 51 weeks, study length 52 weeks) was “negative (inactive)”. It also gave a TD50 (rat, strain F344/DuCrj, males, in feed, site: forestomach, lesion: papilloma, dosed 51 weeks, study length 52 weeks) of 1460 mg/kg/day, a TD50 (rat, strain F344/DuCrj, males, in feed, site: forestomach, lesion: squamous-cell carcinoma, dosed 104 weeks, study length 104 weeks) of 377 mg/kg/day and a TD50 (rat, strain F344/DuCrj, males, in feed, site: forestomach, lesion: squamous-cell papilloma, dosed 104 weeks, study length 104 weeks) of 832 mg/kg/day. The TD50 (rat, strain F344/DuCrj, males, in feed, site: stomach, glandular, lesion: adenoma, dosed 104 weeks, study length 104 weeks) was 16200 mg/kg/day and the carcinogen call (rat, strain F344/DuCrj, males, in feed, site: stomach, glandular, lesion: one or several types, types not named, dosed 51 weeks, study length 52 weeks) was “negative (inactive)”.
